From the Deep4Chem optical property database

assay: solvent given as SMILES; settings: in C1CCCCC1

Row | Structure (SMILES) | emission maximum [nm]
1 | COC(=O)c1noc(-c2ccccc2)c1Br | 344
2 | CN(C)c1ccc2nc(/C=C/c3ccccc3)c(=O)oc2c1 | 488
3 | CN(C)c1ccc2c3c(ccc2c1)C(=O)CCC3 | 407
4 | CCCC1(CCC)c2cc(-c3ccc(-c4ccc(OC)cc4)o3)ccc2-c2ccc(-c3ccc(-c4ccc(OC)cc4)o3)cc21 | 425
5 | Cc1cc(C)c(B(c2ccc(N3c4ccccc4C(C)(C)c4ccccc43)cc2)c2c(C)cc(C)cc2C)c(C)c1 | 442
6 | Nc1cccc2c1-c1ccccc1C2=O | 513

same assay, conditions: in C1CCOC1

Row | Structure (SMILES) | emission maximum [nm]
7 | CC1(C)Nc2cc(Cl)ccc2-c2[nH]c3ccccc3c(=O)c21 | 474
8 | Oc1ccccc1/C=N/c1ccc(Cn2cncn2)cc1 | 363.99
9 | c1ccc(-c2ccc(-c3ccccc3)cc2)cc1 | 340
10 | O=C1c2ccccc2S(=O)(=O)c2ccc(-n3c4ccccc4c4ccccc43)cc21 | 576
11 | CCn1c2ccccc2c2cc(/C=C/c3cc(/C=C/c4ccc5c(c4)c4ccccc4n5CC)ncn3)ccc21 | 463
12 | O=C(c1ccc(N2c3ccccc3Sc3ccccc32)cc1)c1ccc2sc3ccccc3c2c1 | 604
13 | N#Cc1ccc(-c2ccc(C3=CCC(c4ccccc4)CC3)s2)s1 (stereo not given) | 442
14 | Cc1cc(C)c(B(c2ccc(N3c4ccccc4C(C)(C)c4ccccc43)cc2)c2c(C)cc(C)cc2C)c(C)c1 | 530
15 | CCCc1ccc2c(c1)cc1n2B2c3c4c-1cccc4cc1cccc(c31)-c1cc3cc(CCC)ccc3n12 | 565
16 | CC(=O)c1ccc2ccc3c(NCCC(=O)NCCCCCCc4nc5c(=O)[nH]c(N)nc5n4[C@H]4C[C@H](O)[C@@H](CO)O4)ccc4ccc1c2c43 | 523

same assay, conditions: in C1COCCO1

Row | Structure (SMILES) | emission maximum [nm]
17 | c1ccc(-c2nc(-c3ccc(-c4ccc(-c5nc(-c6ccccc6)c(-c6ccccc6)o5)cc4)cc3)oc2-c2ccccc2)cc1 | 428
18 | Oc1ccccc1/C=N/c1ccc(Cn2cncn2)cc1 | 324
19 | CN(C)c1ccc2nc(/C=C/c3ccccc3)c(=O)oc2c1 | 533
20 | c1ccc(-c2ccc(-c3ccccc3)cc2)cc1 | 342
21 | COC(=O)c1nc2c(N(C)C)nc(N)nc2n1Cc1ccccc1 | 391

same assay, conditions: in CC1CCCCC1

Row | emission maximum [nm] | Structure (SMILES)
22 | 431 | c1ccc2c(c1)Sc1ccccc1S2

same assay, conditions: in CC#N

Row | Structure (SMILES) | emission maximum [nm]
23 | COc1ccc(-c2[nH]c(=O)n3c2-c2ccccc2C3=O)c(OC)c1 | 492
24 | CC1(C)Nc2cc(Cl)ccc2-c2[nH]c3ccccc3c(=O)c21 | 496
25 | Oc1ccccc1/C=N/c1ccc(Cn2cncn2)cc1 | 428.01
26 | CN(C)c1ccc2nc(/C=C/c3ccccc3)c(=O)oc2c1 | 567
27 | CN(C)c1ccc2c3c(ccc2c1)C(=O)CCC3 | 448
28 | Cn1c(=O)cc(C(=O)c2ccccc2)c2sc(-c3ccc(C(F)(F)F)cc3)cc21 | 517
29 | COC(=O)c1nc2c(N(C)C)nc(N)nc2n1Cc1ccccc1 | 399
30 | N#Cc1ccc(-c2ccc(C3=CCC(c4ccccc4)CC3)s2)s1 (stereo not given) | 448
31 | COC(=O)c1cc(=O)n(C)c2cc(-c3ccccc3OC)sc12 | 468
32 | COc1ccc(/C=C/C2=[O+][B-](F)(F)OC(/C=C/c3ccc(OC)c4ccccc34)=C2c2ccccc2)c2ccccc12 | 649
33 | Nc1cccc2c1-c1ccccc1C2=O | 604
34 | CC(=O)c1ccc2ccc3c(NCCC(=O)NCCCCCCc4nc5c(=O)[nH]c(N)nc5n4[C@H]4C[C@H](O)[C@@H](CO)O4)ccc4ccc1c2c43 | 546

same assay, conditions: in CC(C)=O

Row | Structure (SMILES) | emission maximum [nm]
35 | Oc1ccccc1/C=N/c1ccc(Cn2cncn2)cc1 | 381
36 | CN(C)c1ccc2nc(/C=C/c3ccccc3)c(=O)oc2c1 | 557
37 | COc1ccc(/C=C/C2=[O+][B-](F)(F)OC(/C=C/c3ccc(OC)c4ccccc34)=C2c2ccccc2)c2ccccc12 | 631

same assay, conditions: in CC(C)O

Row | Structure (SMILES) | emission maximum [nm]
38 | Oc1ccccc1/C=N/c1ccc(Cn2cncn2)cc1 | 367
39 | CN(C)c1ccc2c3c(ccc2c1)C(=O)CCC3 | 482
40 | CC(=O)c1ccc2ccc3c(NCCC(=O)NCCCCCCc4nc5c(=O)[nH]c(N)nc5n4[C@H]4C[C@H](O)[C@@H](CO)O4)ccc4ccc1c2c43 | 557

same assay, conditions: in CCC(C)=O

Row | Structure (SMILES) | emission maximum [nm]
41 | CN(C)c1ccc2c3c(ccc2c1)C(=O)CCC3 | 443

same assay, conditions: in CCCCCC

Row | Structure (SMILES) | emission maximum [nm]
42 | Oc1ccccc1/C=N/c1ccc(Cn2cncn2)cc1 | 314
43 | O=C1c2ccccc2S(=O)(=O)c2ccc(-n3c4ccccc4c4ccccc43)cc21 | 485
44 | N#Cc1ccc(-c2ccc(C3=CCC(c4ccccc4)CC3)s2)s1 (stereo not given) | 427

same assay, conditions: in CCCCCCC

Row | Structure (SMILES) | emission maximum [nm]
45 | CN(C)c1ccc2nc(/C=C/c3ccccc3)c(=O)oc2c1 | 485

same assay, conditions: in CCCCO

Row | Structure (SMILES) | emission maximum [nm]
46 | CC1(C)Nc2cc(Cl)ccc2-c2[nH]c3ccccc3c(=O)c21 | 505
47 | Oc1ccccc1/C=N/c1ccc(Cn2cncn2)cc1 | 368

same assay, conditions: in CCCO

Row | Structure (SMILES) | emission maximum [nm]
48 | CC1(C)Nc2cc(Cl)ccc2-c2[nH]c3ccccc3c(=O)c21 | 505

same assay, conditions: in CCO

Row | emission maximum [nm] | Structure (SMILES)
49 | 447 | CC(C)(C)OC(=O)NC(Cc1ccccc1)C(=O)OCc1ccc2c3cccc4cccc(c5cccc1c52)c43 (stereo not given)
50 | 424 | COc1cc2c(cc1F)c(=O)c1cc(F)c(OC)cc1n2-c1ccccc1
51 | 670 | CN1/C(=C/C=C(/C=C/c2sc3ccccc3[n+]2C)c2cc(F)cc(F)c2)Sc2ccccc21
52 | 637 | CCN(CC)c1ccc2c(c1)oc(=O)c1c(-c3ccccc3C(=O)O)c3ccc(=[N+](CC)CC)cc-3oc12
53 | 537 | Nc1cc2nc3cc(F)c(F)cc3nc2cc1N
54 | 667 | Nc1cccc2c1-c1ccccc1C2=O
55 | 559 | CC(=O)c1ccc2ccc3c(NCCC(=O)NCCCCCCc4nc5c(=O)[nH]c(N)nc5n4[C@H]4C[C@H](O)[C@@H](CO)O4)ccc4ccc1c2c43

Row | Structure (SMILES) | emission maximum [nm]
56 | CC1(C)Nc2cc(Cl)ccc2-c2[nH]c3ccccc3c(=O)c21 | 506
57 | Oc1ccccc1/C=N/c1ccc(Cn2cncn2)cc1 | 407
58 | CN(C)c1ccc2nc(/C=C/c3ccccc3)c(=O)oc2c1 | 574
59 | c1ccc(-c2ccc(-c3ccccc3)cc2)cc1 | 375
60 | CN(C)c1ccc2c3c(ccc2c1)C(=O)CCC3 | 489
61 | N#Cc1ccc(-c2ccc(C3=CCC(c4ccccc4)CC3)s2)s1 (stereo not given) | 444

same assay, conditions: in CCOC(C)=O

Row | Structure (SMILES) | emission maximum [nm]
62 | CC1(C)Nc2cc(Cl)ccc2-c2[nH]c3ccccc3c(=O)c21 | 482
63 | Oc1ccccc1/C=N/c1ccc(Cn2cncn2)cc1 | 357
64 | CN(C)c1ccc2nc(/C=C/c3ccccc3)c(=O)oc2c1 | 541
65 | CN(C)c1ccc2c3c(ccc2c1)C(=O)CCC3 | 429
66 | CCn1c2ccccc2c2cc(/C=C/c3cc(/C=C/c4ccc5c(c4)c4ccccc4n5CC)ncn3)ccc21 | 460
67 | COc1ccc(/C=C/C2=[O+][B-](F)(F)OC(/C=C/c3ccc(OC)c4ccccc34)=C2c2ccccc2)c2ccccc12 | 603

same assay, conditions: in CCOCC

Row | Structure (SMILES) | emission maximum [nm]
68 | Oc1ccccc1/C=N/c1ccc(Cn2cncn2)cc1 | 346
69 | COc1ccc(/C=C/C2=[O+][B-](F)(F)OC(/C=C/c3ccc(OC)c4ccccc34)=C2c2ccccc2)c2ccccc12 | 583

same assay, conditions: in CN(C)C=O

Row | Structure (SMILES) | emission maximum [nm]
70 | CC1(C)Nc2cc(Cl)ccc2-c2[nH]c3ccccc3c(=O)c21 | 493
71 | Oc1ccccc1/C=N/c1ccc(Cn2cncn2)cc1 | 397.99
72 | Nc1ccc(N2C(=O)c3ccc4c5ccc6c7c(ccc(c8ccc(c3c48)C2=O)c75)C(=O)N(c2ccc(O)cc2)C6=O)cc1 | 537
73 | CN(C)c1ccc2nc(/C=C/c3ccccc3)c(=O)oc2c1 | 571
74 | CCn1c2ccccc2c2cc(/C=C/c3cc(/C=C/c4ccc5c(c4)c4ccccc4n5CC)ncn3)ccc21 | 500
75 | Cc1cc(C)c(B(c2ccc(N3c4ccccc4C(C)(C)c4ccccc43)cc2)c2c(C)cc(C)cc2C)c(C)c1 | 578.72
